The values that follow come from US10251845B2, “Fatty acid cysteamine conjugates and their use as activators of autophagy” (Catabasis Pharmaceuticals, Inc., priority 2014, dated 2019).

What all share (format): cell-based
For one assay, the system named is CCL2. The assay is described as follows: RT-PCR of CCL2 mRNA in LPS-stimulated THP-1 cells. The settings on record: 25 μM, LPS stimulation. On the procedure: (§1) THP-1 cells were obtained from ATCC® TIB202. THP-1 cells were maintained in RPMI1640 (Gibco® RPMI 1640) supplemented with 10% fetal bovine serum. DMEM (#11095) and fetal bovine serum (low endotoxin grade) (#10437) was obtained from Invitrogen.
(§2) Compounds II-3 and I-1 were first solubilized in 100% DMSO as 50 mM solution, and then diluted 1 to 200 in 1% BSA as a 10× stock solution of […], and series stock dilution (1 to 2 dilution) were carried out as needed. The 10× stock solution were added to the cell media and cells were incubated for 24 hours at 37° C. For LPS stimulation in THP-1 cells, compounds were added to the cell media for 6 hours at and at the end of 4 hours, 50 μg/ml final concentration of LPS (Sigma L3024) was added and cells were incubated for 2 hours. […] The total RNA was harvested, and the relative mRNA expression levels were assessed via RT-PCR with HPRT as the internal control. […] Significance was determined by student's t-test in comparison to control.
(§3) Total RNA was collected using RNeasy Plus Mini Kit (Qiagen #74136) and cDNA generated using SuperScriptIII (Invitrogen #18080-044) with random hexamers following the manufacturer's protocol. Relative mRNA expression levels were determined using TaqMan probes (Applied Biosystems, using the recommended best primer pairs) with HPRT (hypoxanthine phosphoryltransferase) as the internal control. […]

Assay [1] concerns Pseudomona aeruginosa strain Xen05. The assay is described as follows: In vitro bacterial clearance assay using human bronchial epithelial cells (16HBE). The conditions noted are these: 16HBE cells, 25 μM. On the procedure:
In this assay, normal 16HBE cells were cultured and seeded at 2×10^5 cells per well using a 48-well plate. The resulting plates were incubated at 37° C. with 5% CO2 until 90% confluency. Cells were then treated with compound II-3 for 24 hours and then infected with Pseudomona aeruginosa strain Xen05 at a multiplicity of infection (MOI) of 1:50 (i.e. ratio of cells:bacteria) for 2 hours. Cells were then incubated with 500 μL of a mixture consisting non-permeable antibiotic (50 U/mL each of penicillin and streptomycin, mixed with 200 μg/mL gentamicin) for 3 hours to remove the extracellular bacteria. Afterwards, cells were lysed and a bacteria count was carried out to determine the remaining intracellular bacteria load.

In another assay the test system is cell surface CFTR. Kind of assay: Cell surface biotinylation in HT-29 cells, anti-CFTR immunoblot. The conditions noted are these: 50 μM, 24 hours. On the procedure: The test compound was first solubilized in 100% DMSO as a 50 mM solution, and then diluted 1 to 100 in FBS as a 10× stock solution of 500 μM.
HT-29 cells were seeded at 2.0×10^6 cells in […] in 10% FBS DMEM overnight. The cell media was replaced with drug diluted 1 to 10 in DMEM (final concentration 50 μm in 10% FBS DMEM). 24 hours after drug addition, the cells were processed for cell surface biotinyaltion using Pierce Cell Surface Protein Isolation Kit (Thermo Scientific 89881). Briefly, cells were washed once with cold PBS and incubated with Sulfo-NHS-SS-Biotin for 30 minutes at 4° C. and reaction was stopped by adding Quenching solution. Cells were scraped and lysed and centrifuged at 10,000×g. Cell suspension were incubated with NeutrAvidin Agarose for 60 minutes at room temperature. Cell pellet (intracellular) were lysed in RIPA buffer. Protein bound to NeutrAvidin Agarose (cell surface) were eluted by SDS-PAGE sample buffer containing 50 mM DTT. Both cell surface and intracellular parts were analyzed by immunoblotting with anti-CFTR antibodies.
Background: In western blotting, separated proteins are transferred to a membrane and probed.

In another assay the test system is IL-1β. The assay is described as follows: RT-PCR of IL-1β mRNA in LPS-stimulated THP-1 cells. The conditions noted are these: 25 μM, LPS stimulation. On the procedure: as §1, §2, §3
The subject of the next assay is TNF-α. Kind of assay: RT-PCR of TNF-α mRNA in LPS-stimulated THP-1 cells. The conditions noted are these: 25 μM, LPS stimulation. On the procedure:
as §1, §2, §3

For the compound `CC/C=C\C/C=C\C/C=C\C/C=C\C/C=C\C/C=C\CCC(=O)NCCSSC(C)(C)CNC(=O)c1cccnc1` [II-3, N-(2-((2-((4Z,7Z,10Z,13Z,16Z,19Z)-docosa-4,7,10,13,16,19-hexaenamido)ethyl)disulfanyl)-2-methylpropyl)nicotinamide], the “CCL2 mRNA level” value in the assay with CCL2 was “marked reduction”. Moreover, the “intracellular bacterial killing effect relative to positive control Cytochalasin-D” value in assay [1] is reported as “comparable”. Moreover, the “intracellular clearance of Pseudomona aeruginosa” value in assay [1] (24 hours pre-treatment) is on record as “effective intracellular clearance”. The “cell surface CFTR compared to vehicle control” value with cell surface CFTR is given as “corresponding increase”. For the same compound, the “IL-1β mRNA level” value in the assay with IL-1β was “marked reduction”. Also, the “TNF-α mRNA level” value in the assay with TNF-α was “marked reduction”.
